Results: patent EP3057951B1, “METHYLENE LINKED QUINOLINYL MODULATORS OF ROR-GAMMA-T” (Janssen Pharmaceutica NV, priority 2013, dated 2015)
Where a name gives a salt, the structure may show the parent alone. Read-outs that look alike come from different tables or passages of the source.

How the values were obtained:
[1] = molecular target: T1, wild type human RORγt ligand binding domain (RORyt LBD) (Homo sapiens, UniProt P51449); assay: RORγt ThermoFluor assay (thermal shift, binding affinity KD)
T1 construct: His-tag (N); TurboTEV protease cleavage site (ENLYFQG) (N); made in house; host or cells: E. coli (pHIS1, modified pET vector)
T1 sequence (P51449 258-518): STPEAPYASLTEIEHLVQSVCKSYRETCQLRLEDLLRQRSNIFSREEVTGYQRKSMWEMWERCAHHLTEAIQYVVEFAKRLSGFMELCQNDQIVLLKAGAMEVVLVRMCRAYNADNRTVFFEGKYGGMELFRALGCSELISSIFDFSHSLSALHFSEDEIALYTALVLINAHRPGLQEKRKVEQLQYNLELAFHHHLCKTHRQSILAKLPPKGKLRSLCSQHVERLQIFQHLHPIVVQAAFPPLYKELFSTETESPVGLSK

[2] = molecular target: T2, wild type human RORγt LBD (Homo sapiens, UniProt P51449); assay: RORγt (LBD) Reporter Assay (GAL4-luciferase, HEK293T cells); format: cell-based; conditions: for inhibition at 6 µM: HEK-293T, read-out: RORγt (LBD) Reporter Assay, % inhibition @ 6 µM, 6 µM compound concentration; for RORγt (LBD) Reporter Assay, % inhibition @ 6 µM: 6 µM compound concentration
T2 construct: expressed in transfected cells; host or cells: HEK293T
T2 sequence (P51449 258-518): T1 sequence (P51449 258-518)

[3] = HEK293T cells, value after the comma with ∼, > or < could not be included in the average

Kd [1] [nM] | IC50 ([2]; HEK293T cells) [nM] | inhibition at 6 µM ([2]; HEK293T cells) [%] | RORγt (LBD) Reporter Assay, % inhibition @ 6 µM ([2]; 6 µM) [%] | IC50 [2, 3] [nM] | inhibition at 6 µM [2] [%] | RORγt (LBD) Reporter Assay, % inhibition @ 6 µM ([2]; HEK293T cells, 6 µM) [%] | RORγt (LBD) Reporter Assay, % inhibition @ 6 µM [2] [%] | Compound
23000 | ~6000 | 58 |  |  |  |  |  | Cn1cncc1C(O)(c1ccc(C(F)(F)F)nc1)c1ccc2nc(-c3nccn3C)c(Cc3ccccc3)c(Cl)c2c1 (single isomer, unassigned) [Example 113b, (3-Benzyl-4-chloro-2-(1-methyl-1H-imidazol-2-yl)quinolin-6-yl)(1-methyl-1H-imidazol-5-yl)(6-(trifluoromethyl)pyridin-3-yl)methanol]
270 |  |  | 94 | 830 |  |  |  | COc1nc2ccc(C(N)(c3ccc(C(F)(F)F)nc3)c3cncn3C)cc2c(Cl)c1Cc1cc2ccccc2s1 (single isomer, unassigned) [Example 71c, (3-(Benzo[b]thiophen-2-ylmethyl)-4-chloro-2-methoxyquinolin-6-yl)(1-methyl-1H-imidazol-5-yl)(6-(trifluoromethyl)pyridin-3-yl)methanamine]
3400 |  |  |  | 5600 | 57 |  |  | Cn1cncc1C(O)(c1ccc(C(F)(F)F)nc1)c1ccc2nc(C(F)(F)F)c(Cc3ccccc3)c(O)c2c1 (stereo not drawn) [Example 107, 3-Benzyl-6-(hydroxy(1-methyl-1H-imidazol-5-yl)(6-(trifluoromethyl)pyridin-3-yl)methyl)-2-(trifluoromethyl)quinolin-4-ol•TFA]
17000 | > 6000 |  |  |  |  | 20 |  | Cc1ccc(C(O)(c2ccc3nc(N4CCC4)c(Cc4ccc(-n5cccn5)cc4)c(Cl)c3c2)c2cnnn2C)c(C)n1 (single isomer, unassigned) [Example 141b, {2-Azetidin-1-yl-4-chloro-3-[4-(1H-pyrazol-1-yl)benzyl]quinolin-6-yl}(2,6-dimethylpyridin-3-yl)(1-methyl-1H-1,2,3-triazol-5-yl)methanol]
32 | 75 |  |  |  |  | 96 |  | Cn1cncc1C(O)(c1ccc(Cl)cc1)c1ccc2nc(N3CCC3)c(Cc3ccc(-n4cccn4)cc3)c(Cl)c2c1 (single isomer, unassigned) [Example 138c, {2-Azetidin-1-yl-4-chloro-3-[4-(1H-pyrazol-1-yl)benzyl]quinolin-6-yl}(4-chlorophenyl)(1-methyl-1H-imidazol-5-yl)methanol]
0.34 | 2.4 | 96 |  |  |  |  |  | COc1nc2ccc(C(O)(c3cncn3C)c3cncn3C)cc2c(Cl)c1Cc1ccc(C(F)(F)F)cc1 [Example 149, (4-Chloro-2-methoxy-3-(4-(trifluoromethyl)benzyl)quinolin-6-yl)bis(1-methyl-1H-imidazol-5-yl)methanol]
2300 | ~3700 |  |  |  |  | 69 |  | Cc1ccc(C(O)(c2ccc3nc(Cl)c(Cc4ccc(C(F)(F)F)cc4)c(NC4CC4)c3c2)c2cnnn2C)c(C)n1 (single isomer, unassigned) [Example 144b, {2-Chloro-4-(cyclopropylamino)-3-[4-(trifluoromethyl)benzyl]quinolin-6-yl}(2,6-dimethylpyridin-3-yl)(1-methyl-1H-1,2,3-triazol-5-yl)methanol]
36 | 45 | 108 |  |  |  |  |  | CN(C)c1nc2ccc(C(O)(c3ccc(C(F)(F)F)nc3)c3cncn3C)cc2c(Cl)c1Cc1ccc(-n2cccn2)cc1 (stereo not drawn) [Example 132, {4-Chloro-2-(dimethylamino)-3-[4-(1H-pyrazol-1-yl)benzyl]quinolin-6-yl}(1-methyl-1H-imidazol-5-yl)[6-(trifluoromethyl)pyridin-3-yl]methanol]
44 |  |  |  | 700 | 35 |  |  | CC(=O)N1CCC(C(O)(c2ccccc2)c2ccc3nc(Cl)c(Cc4cncnc4)c(OC(F)F)c3c2)CC1 (single isomer, unassigned) [Example 73b, 1-(4-((2-Chloro-4-(difluoromethoxy)-3-(pyrimidin-5-ylmethyl)quinolin-6-yl)(hydroxy)(phenyl)methyl)piperidin-1-yl)ethanone]
200 |  |  |  | 660 | 97 |  |  | COc1nc2ccc(C(O)(c3ccc(C)nc3C)c3cnnn3C)cc2c(Cl)c1Cc1ccc(-n2cccn2)cc1 (single isomer, unassigned) [Example 17b, (3-(4-(1H-Pyrazol-1-yl)benzyl)-4-chloro-2-methoxyquinolin-6-yl)(2,6-dimethylpyridin-3-yl)(1-methyl-1H-1,2,3-triazol-5-yl)methanol]
17 |  |  |  | 42 | 105 |  |  | COc1nc2ccc(C(O)(c3ccc(C#N)cc3)c3cncn3C)cc2c(Cl)c1Cc1ccc(-n2cncn2)cc1 (stereo not drawn) [Example 14a, 4-((3-(4-(1H-1,2,4-Triazol-1-yl)benzyl)4-chloro-2-methoxyquinolin-6-yl)(hydroxy)(1-methyl-1H-imidazol-5-yl)methyl)benzonitrile]
11 | 78 |  |  |  |  | 102 |  | COc1nc2ccc(C(O)(c3cccnc3)c3ccc(Cl)c(Cl)c3)cc2c(Cl)c1Cc1ccc(-n2cccn2)cc1 (single isomer, unassigned) [Example 161c, (3-(4-(1H-Pyrazol-1-yl)benzyl)-4-chloro-2-methoxyquinolin-6-yl)(3,4-dichlorophenyl)(pyridin-3-yl)methanol]
22000 |  |  | 92 | ~5000 |  |  |  | Cn1cc(-c2nc3ccc(C(O)(c4ccc(C(F)(F)F)nc4)c4cncn4C)cc3c(Cl)c2Cc2ccccc2)cn1 (single isomer, unassigned) [Example 111c, (3-Benzyl-4-chloro-2-(1-methyl-1H-pyrazol-4-yl)quinolin-6-yl)(1-methyl-1H-imidazol-5-yl)(6-(trifluoromethyl)pyridin-3-yl)methanol]
1300 |  |  |  | 1900 | 94 |  |  | Cn1cncc1C(O)(c1ccc(Cl)cc1)c1ccc2nc(C(F)(F)F)c(Cc3ccccc3)c(O)c2c1 (stereo not drawn) [Example 102, 3-Benzyl-6-((4-chlorophenyl)(hydroxy)(1-methyl-1H-imidazol-5-yl)methyl)-2-(trifluoromethyl)quinolin4-ol•TFA]
1100 |  |  |  | 1200 | 53 |  |  | CC(=O)N1CCC(C(O)(c2ccc(F)cc2)c2ccc3nc(OC(F)F)c(Cc4cncnc4)c(OC(F)F)c3c2)CC1 (stereo not drawn) [Example 72, 1-(4-((2,4-bis(Difluoromethoxy)-3-(pyrimidin-5-ylmethyl)quinolin-6-yl)(4-fluorophenyl)(hydroxy)methyl)piperidin-1-yl)ethanone]
510 | 370 | 107 |  |  |  |  |  | COc1ccc(C(O)(c2cccnc2)c2ccc3nc(OC)c(Cc4ccc(-n5cccn5)cc4)c(Cl)c3c2)cc1OC (single isomer, unassigned) [Example 159b, (3-(4-(1H-Pyrazol-1-yl)benzyl)-4-chloro-2-methoxyquinolin-6-yl)(3,4-dimethoxyphenyl)(pyridin-3-yl)methanol]
80 | 230 | 102 |  |  |  |  |  | Cn1cncc1C(O)(c1ccc(C(F)(F)F)nc1)c1ccc2nc(N3CCCC3)c(Cc3ccc(-n4cccn4)cc3)c(Cl)c2c1 (single isomer, unassigned) [Example 145b, {4-Chloro-3-[4-(1H-pyrazol-1-yl)benzyl]-2-pyrrolidin-1-ylquinolin-6-yl}(1-methyl-1H-imidazol-5-yl)[6-(trifluoromethyl)pyridin-3-yl]methanol]
0.31 |  |  |  | 6 | 101 |  |  | COc1nc2ccc(C(O)(c3sc(C)nc3C)c3cnnn3C)cc2c(Cl)c1Cc1ccc(-n2cccn2)cc1 (stereo not drawn) [Example 21a, (3-(4-(1H-Pyrazol-1-yl)benzyl)4-chloro-2-methoxyquinolin-6-yl)(2,4-dimethylthiazol-5-yl)(1-methyl-1H-1,2,3-triazol-5-yl)methanol]
9 |  |  |  | 19 |  |  | 99 | COc1nc2ccc(C(O)(c3cnnn3C)c3cnc(C)n3C)cc2c(C#N)c1Cc1ccc(C(F)(F)F)nc1 (single isomer, unassigned) [Example 44c, 6-((1,2-Dimethyl-1H-imidazol-5-yl)(hydroxy)(1-methyl-1H-1,2,3-triazol-5-yl)methyl)-2-methoxy-3-((6-(trifluoromethyl)pyridin-3-yl)methyl)quinoline-4-carbonitrile]

Compound | Kd [1] [nM] | IC50 ([2]; HEK293T cells) [nM] | inhibition at 6 µM ([2]; HEK293T cells) [%] | RORγt (LBD) Reporter Assay, % inhibition @ 6 µM ([2]; 6 µM) [%] | IC50 [2, 3] [nM] | inhibition at 6 µM [2] [%] | RORγt (LBD) Reporter Assay, % inhibition @ 6 µM ([2]; HEK293T cells, 6 µM) [%] | RORγt (LBD) Reporter Assay, % inhibition @ 6 µM [2] [%]
Cn1cc(-c2nc3ccc(C(O)(c4ccc(C(F)(F)F)nc4)c4cncn4C)cc3c(C#N)c2Cc2ccccc2)cn1 (stereo not drawn) [Example 112a, 3-Benzyl-6-(hydroxy(1-methyl-1H-imidazol-5-yl)(6-(trifluoromethyl)pyridin-3-yl)methyl)-2-(1-methyl-1H-pyrazol-4-yl)quinoline-4-carbonitrile•TFA] | 6600 |  |  |  | 1000 | 91 |  | 
COc1nc2ccc(C(O)(c3oc(C)nc3C)c3cnnn3C)cc2c(Cl)c1Cc1ccc(C(F)(F)F)cc1 (stereo not drawn) [Example 156a, (4-chloro-2-methoxy-3-(4-(trifluoromethyl)benzyl)quinolin-6-yl)(2,4-dimethylozazol-5-yl)(1-methyl-1H-1,2,3-triazol-5-yl)methanol] | 0.63 | 6.6 | 94 |  |  |  |  | 
